Laboratory results taken from article PMC8387444 (Bioorganic chemistry, 2021).

Experiments:
human CRFR1 [1] = target: T1, human CRFR1 (Homo sapiens, UniProt P34998); assay type: binding; conditions: for inhibition at 0.5 µM: read-out: Inhibition of [125I]-Tyr0-sauvagine specific binding; for Binding affinity fold lower than that of antalarmin: relative to antalarmin
T1 sequence (P34998 24-415): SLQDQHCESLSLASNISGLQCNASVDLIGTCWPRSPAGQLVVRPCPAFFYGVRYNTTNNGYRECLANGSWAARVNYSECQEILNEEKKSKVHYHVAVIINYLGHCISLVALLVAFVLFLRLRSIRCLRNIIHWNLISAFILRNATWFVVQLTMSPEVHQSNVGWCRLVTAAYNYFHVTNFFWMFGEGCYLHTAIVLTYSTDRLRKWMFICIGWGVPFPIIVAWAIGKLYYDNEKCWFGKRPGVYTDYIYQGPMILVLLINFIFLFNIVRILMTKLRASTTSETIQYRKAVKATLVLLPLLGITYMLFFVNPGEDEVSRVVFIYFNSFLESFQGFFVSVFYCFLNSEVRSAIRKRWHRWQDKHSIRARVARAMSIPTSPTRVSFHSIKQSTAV

human CRFR1 [2] = target: T1, human CRFR1

Compound	inhibition at 0.5 µM (human CRFR1 [1]) [%]	Ki (human CRFR1 [1]) [nM]	Binding affinity fold lower than that of antalarmin (human CRFR1 [1]) [fold]	IC50 (human CRFR1 [2]) [nM]	Times less potent than antalarmin to inhibit CRF-stimulated cAMP accumulation (human CRFR1 [2]; relative to antalarmin) [times]
CCCNc1nc(C)nc2c1sc(=S)n2-c1ccc(OC)cc1OC [5a, 3-(2,4-Dimethoxyphenyl)-5-methyl-7-(propylamino)thiazolo[4,5-d]pyrimidine-2(3H)-thione]	< 50				
CCN(CC)c1nc(C)nc2c1sc(=S)n2-c1ccc(OC)cc1OC [5b, 7-(Diethylamino)-3-(2,4-dimethoxyphenyl)-5-methylthiazolo[4,5-d]pyrimidine-2(3H)-thione]	> 50	84.5	5		
CCCCN(CCCC)c1nc(C)nc2c1sc(=S)n2-c1ccc(OC)cc1OC [5d, 7-(Dibutylamino)-3-(2,4-dimethoxyphenyl)-5-methylthiazolo[4,5-d]pyrimidine-2(3H)-thione]	> 50	91.2	6		
CCCCN(CC)c1nc(C)nc2c1sc(=S)n2-c1ccc(OC)cc1OC [5e, 7-(Butyl(ethyl)amino)-3-(2,4-dimethoxyphenyl)-5-methylthiazolo[4,5-d]pyrimidine-2(3H)-thione]	> 50	170	10		
CCCNc1nc(C)nc2c1sc(=O)n2-c1ccc(OC)cc1OC [8a, 3-(2,4-Dimethoxyphenyl)-5-methyl-7-(propylamino)thiazolo[4,5-d]pyrimidin-2(3H)-one]	< 50				
CCN(CC)c1nc(C)nc2c1sc(=O)n2-c1ccc(OC)cc1OC [8b, 7-(Diethylamino)-3-(2,4-dimethoxyphenyl)-5-methylthiazolo[4,5-d]pyrimidin-2(3H)-one]	< 50				
CCCN(CCC)c1nc(C)nc2c1sc(=O)n2-c1ccc(OC)cc1OC [8c, 3-(2,4-Dimethoxyphenyl)-7-(dipropylamino)-5-methylthiazolo[4,5-d]pyrimidin-2(3H)-one]	> 50	32.1	2	2150	100
CCCCN(CCCC)c1nc(C)nc2c1sc(=O)n2-c1ccc(OC)cc1OC [8d, 7-(Dibutylamino)-3-(2,4-dimethoxyphenyl)-5-methylthiazolo[4,5-d]pyrimidin-2(3H)-one]	< 50				
CCCCN(CC)c1nc(C)nc2c1c(C)c(C)n2-c1c(C)cc(C)cc1C [antalarmin, reference compound]		16.2		26	
